Measured values reported in patent US20090214454A1, “METHOD FOR SKIN WHITENING USING (2Z, 8Z) - MATRICARIA ACID METHYL ESTER” (INHA-INDUSTRY PARTNERSHIP INSTITUTE, priority 2008, published 2009).

How the values were obtained:
melan-A cells [1] = assay: Cytotoxicity test (MTT, OD540) in Melan-A cells; type: cell-based; conditions: for Cell survival rate (%): Melan-A cells, MTT, three days, vs non-treated group = 100
Protocol: Upon completion of the culture, the medium was eliminated and 100 μl of MTT (3-(4,5-dimethythiazol-2-yl)-2,5-diphenyltetrazoliu,bromide) solution was added to each well of the plate, followed by reaction at 37° C. for 4 hours. Upon completion of the reaction, the solution was eliminated and 100 μl of DMSO was added to each well of the plate to lyse the stained cells. Then, OD540 was measured using ELISA reader. Cell survival rate was calculated by the following mathematical formula 2 (Table 2, FIGS. 4 and 5).
Cell survival rate (%)=(OD of treated group/OD of non-treated group)×100 [Mathematical Formula 2]

melan-A cells [2] = assay: Melanin generation inhibition by measuring OD405 in melan-A melanocytes; type: cell-based; conditions: for Melanin generation rate (%): culture for three days, vs non-treated group = 100
Protocol: Melan-A melanocytes were provided by AmorePacific Co., Korea. Melan-A is the cell line producing melanin, which has been usually used for the examination of a whitening agent. For cell culture, RPMI1640 medium supplemented with 10% FBS, 1% penicillin/streptomycin, and 200 nM TPA was prepared and sterilized. The cells were cultured in a 37° C., 10% CO2 incubator. When the melan-A cells were grown to fill 90% of 100 mm Petri-dish, the cells were sub-cultured.
The cells were recovered by using trypsine-EDTA. 1N NaOH containing 10% DMSO (dimethylsulfoxide) was added to the recovered cells, followed by reaction at 80° C. for 1 hour to let melanin dissolved fully. Then, OD405 was measured using ELISA reader (VERSAmax, Molecular device, USA). Melanin generation was quantified by the following mathematical formula 1 (Table 1, FIGS. 4 and 5).
Melanin generation rate (%)=OD of treated group/OD of non-treated group×100 [Mathematical Formula 1]

SMILES | Cell survival rate (%) (melan-A cells [1]; 50 uM) | Melanin generation rate (%) (melan-A cells [2]; 50 uM) | Cell survival rate (%) (melan-A cells [1]; 4.5 uM) | Cell survival rate (%) (melan-A cells [1]; 9 uM) | Cytotoxicity (result in words) (melan-A cells [1]; at a low concentration) | Melanin generation rate (%) (melan-A cells [2]; 4.5 uM) | Melanin generation rate (%) (melan-A cells [2]; 9 uM) | Melanin generation (result in words) (melan-A cells [2]; compared with non-treated negative control (and positive control PTU for the compound))
NC(=S)Nc1ccccc1 [Phenylthiourea, phenylthiourea, reference compound] | 100.19 | 36.19 | – | – | – | – | – | –
C/C=C\C#CC#C/C=C\C(=O)OC [(2Z,8Z)-matricaria acid methyl ester] | – | – | 106.66 | 99.44 | no cytotoxicity was observed | 36.37 | 26.92 | inhibited melanin generation at a lower concentration
